Test in all cases: Test F preemergence
One assay relates to Italian ryegrass. It counts as in vivo, Lolium multiflorum. The source says: (§1) Seeds of plant species selected from corn (Zea mays), soybean (Glycine max), velvetleaf (Abutilon theophrasti), lambsquarters (Chenopodium album), wild poinsettia (Euphorbia heterophylla), pigweed, palmer (palmer pigweed, Amaranthus palmeri), common waterhemp (Amaranthus rudis), surinam grass (Brachiaria decumbens), large crabgrass (Digitaria sanguinalis), crabgrass, Brazil (Brazilian crabgrass, Digitaria horizontalis), fall panicum (Panicum dichotomiflorum), giant foxtail (Setaria faberii), green foxtail (Setaria viridis), goosegrass (Eleusine indica), johnsongrass (Sorghum halepense), common ragweed (Ambrosia elation), barnyardgrass (Echinochloa crus-galli), southern sandbur (Cenchrus echinatus), arrowleaf sida (Sida rhombifolia), Italian ryegrass (Lolium multiflorum), dayflower, VA (Virginia (VA) dayflower, Commelina virginica), field bindweed (Convolvulus arvensis), cocklebur (common cocklebur, Xanthium strumarium), morningglory (Ipomoea coccinea), nightshade (eastern black nightshade, Solanum ptycanthum), kochia (Kochia scoparia), yellow nutsedge (Cyperus esculentus), and hairy beggarticks (Bidens pilosa), were planted into a silt loam soil and treated preemergence with test chemicals formulated in a non-phytotoxic solvent mixture which included a surfactant.
(§2) At the same time, plants from these crop and weed species and also horseweed (Canada horseweed, Conyza canadensis), smartweed (ladysthumb smartweed, Polygonum persicaria), waterhemp_RES1, (ALS & Triazine resistant common waterhemp, Amaranthus rudis), and waterhemp_RES2, (ALS & HPPD resistant common waterhemp, Amaranthus rudis) were treated with postemergence applications of test chemicals formulated in the same manner. Plants ranged in height from 2 to 18 cm for postemergence treatments (1- to 4-leaf stage). Treated plants and controls were maintained in a greenhouse for 14 to 21 days, after which time all species were compared to controls and visually evaluated. Plant response ratings, summarized in Table F, are based on a scale of 0 to 100 where 0 is no effect and 100 is complete control. A dash (-) response means no test result.

In the next assay the test system is field bindweed. It counts as in vivo, Convolvulus arvensis.
Text: as §1, §2

The test system of another assay is morningglory. It counts as in vivo, Ipomoea coccinea.
Text: as §1, §2

The mark [1] stands for this setting: Preemergence, 31 g ai/ha, scale 0 to 100.
[2] abbreviates: Preemergence, 62 g ai/ha, scale 0 to 100.
Setting [3] is: Preemergence, 125 g ai/ha, scale 0 to 100.
Setting [4] is: preemergence, 8 g ai/ha, scale 0 to 100, 100 is complete control.
Setting [5] is: preemergence, 16 g ai/ha, scale 0 to 100, 100 is complete control.
The mark [6] stands for this setting: Preemergence, 16 g ai/ha, scale 0 to 100.
Where [7] appears, read: Preemergence, 250 g ai/ha, scale 0 to 100.

Take `CCOc1cc(C(=O)NCC(F)(F)F)nn1Cc1ccnc(C(F)(F)F)c1` [Compound 104]: the “Plant response rating, Italian Ryegrass” value came to 40 in the assay on Italian ryegrass (setting [1]); 60 with Italian ryegrass (setting [2]); 75 with Italian ryegrass (setting [3]); 0 in the assay on Italian ryegrass (setting [4]); 0 with Italian ryegrass (setting [5]). Moreover, the “Plant response rating, Field Bindweed” value in the assay on field bindweed (setting [1]) amounted to 30; with field bindweed (setting [2]), 50; in the assay on field bindweed (setting [3]), 95; in the assay with field bindweed (setting [4]), 0; in the assay on field bindweed (setting [5]) it was 10. Also, the “Plant response rating, Morningglory” value with morningglory (setting [1]) was found to be 70; in the assay on morningglory (setting [2]) it was 80; in the assay with morningglory (setting [3]) it was 100; with morningglory (setting [4]), 0; with morningglory (setting [5]), 0.
`CCNC(=O)c1cc(CCCl)n(Cc2ccnc(C(F)(F)F)c2)n1` [Compound 179]: the “Plant response rating, Italian Ryegrass” value in the assay with Italian ryegrass (setting [1]) is reported as 10; with Italian ryegrass (setting [2]) it was 40; with Italian ryegrass (setting [3]) it was 65; in the assay on Italian ryegrass (setting [4]), 0. The “Plant response rating, Field Bindweed” value in the assay with field bindweed (setting [1]) was 5; in the assay with field bindweed (setting [2]), 50; in the assay with field bindweed (setting [3]), 75; in the assay with field bindweed (setting [4]), 0. Also, the “Plant response rating, Morningglory” value in the assay with morningglory (setting [1]) is recorded as 40; in the assay on morningglory (setting [2]), 60; in the assay with morningglory (setting [3]), 70; with morningglory (setting [4]) it was 0.
Consider `CCNC(=O)c1cc(CC)n(Cc2ccnc(C(F)(F)F)c2)n1` [Compound 196], for which the “Plant response rating, Italian Ryegrass” value in the assay on Italian ryegrass (setting [2]) stood at 20; with Italian ryegrass (setting [3]), 50; in the assay on Italian ryegrass (setting [4]) it was 0; in the assay on Italian ryegrass (setting [5]), 0. In addition, the “Plant response rating, Field Bindweed” value is 20 with field bindweed (setting [6]); 75 in the assay on field bindweed (setting [2]); 85 with field bindweed (setting [3]); 5 in the assay with field bindweed (setting [4]); 10 in the assay with field bindweed (setting [5]). Further, the “Plant response rating, Morningglory” value with morningglory (setting [6]) turned out to be 35; in the assay with morningglory (setting [2]), 70; in the assay with morningglory (setting [3]), 80; in the assay on morningglory (setting [4]), 5; in the assay with morningglory (setting [5]), 10.
Turning to `Cc1cc(C(=O)NC(C)C)nn1Cc1ccnc(C(F)(F)F)c1` [Compound 197], the “Plant response rating, Italian Ryegrass” value in the assay with Italian ryegrass (setting [2]) was determined as 30; in the assay on Italian ryegrass (setting [3]), 30; in the assay with Italian ryegrass (setting [4]) it was 0; in the assay on Italian ryegrass (setting [5]) it was 0. For the same molecule, the “Plant response rating, Field Bindweed” value was found to be 35 in the assay on field bindweed (setting [6]); 50 with field bindweed (setting [2]); 80 in the assay on field bindweed (setting [3]); 10 with field bindweed (setting [4]); 15 with field bindweed (setting [5]). For the same molecule, the “Plant response rating, Morningglory” value in the assay on morningglory (setting [6]) worked out at 20; in the assay on morningglory (setting [2]), 30; in the assay with morningglory (setting [3]), 60; in the assay on morningglory (setting [4]) it was 0; in the assay on morningglory (setting [5]) it was 10.
Regarding `CCc1cc(C(=O)NC2CC2)nn1Cc1ccnc(OCC(F)(F)F)c1` [Compound 200], the “Plant response rating, Italian Ryegrass” value in the assay with Italian ryegrass (setting [7]) was determined as 75; in the assay with Italian ryegrass (setting [2]), 0; with Italian ryegrass (setting [3]) it was 60; in the assay on Italian ryegrass (setting [5]) it was 0. Besides, the “Plant response rating, Field Bindweed” value was 60 with field bindweed (setting [7]); 0 in the assay on field bindweed (setting [6]); 0 in the assay with field bindweed (setting [2]); 50 in the assay on field bindweed (setting [3]); 0 with field bindweed (setting [5]). Further, the “Plant response rating, Morningglory” value was determined as 75 in the assay on morningglory (setting [7]); 0 in the assay on morningglory (setting [6]); 10 in the assay on morningglory (setting [2]); 60 in the assay on morningglory (setting [3]); 0 in the assay on morningglory (setting [5]).

These data come from US20150105252A1, “SUBSTITUTED PYRAZOLES AS HERBICIDES” (E I DU PONT DE NEMOURS AND COMPANY, priority 2013, published 2015).
